“And” between values parts separate entries of the source, which are not always exact repeats. Identical values can stand only once. Toxic doses and inconclusive results are not listed.
Test system: B6C3F1 mice, Lewis lung carcinoma iv, survival T/C
Assay: NCI In Vivo Anticancer Drug Screen. Data for tumor model Lewis Lung Carcinoma (intravenous) in B6C3F1 mice
Conditions: endpoint: median survival time, schedule: Q01DX009 (ip), higher = longer survival
How it was run: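 Transplantable tumor in mice; compound treated vs vehicle controls; read-out survival; value = treated/control (T/C).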

[1] = dose: 0.62 mg/kg/injection, vehicle: water
[2] = dose: 1.25 mg/kg/injection, vehicle: water
[3] = dose: 2.5 mg/kg/injection, vehicle: water
[4] = dose: 5.0 mg/kg/injection, vehicle: water
[5] = dose: 10.0 mg/kg/injection, vehicle: water
[6] = dose: 12.5 mg/kg/injection, vehicle: saline with Tween-80
[7] = dose: 25.0 mg/kg/injection, vehicle: saline with Tween-80
[8] = dose: 50.0 mg/kg/injection, vehicle: saline with Tween-80
[9] = dose: 50.0 mg/kg/injection, vehicle: saline
[10] = dose: 100.0 mg/kg/injection, vehicle: saline
[11] = dose: 200.0 mg/kg/injection, vehicle: saline
[12] = dose: 100.0 mg/kg/injection, vehicle: saline with Tween-80
[13] = dose: 25.0 mg/kg/injection, vehicle: saline
[14] = dose: 400.0 mg/kg/injection, vehicle: saline
[15] = dose: 12.5 mg/kg/injection, vehicle: Klucel (hydroxypropylcellulose) (HPC)
[16] = dose: 25.0 mg/kg/injection, vehicle: Klucel (hydroxypropylcellulose) (HPC)
[17] = dose: 12.5 mg/kg/injection, vehicle: saline

`CCC12C[N+]3([O-])CCc4c([nH]c5ccccc45)C(C(=O)OC)(c4cc5c(cc4OC)N(C)C4C(O)(C(=O)OC)C(OC(C)=O)C6(CC)C=CCN7CCC54C76)CC(C3)C1O2` (stereo not given) was tested, and the T/C [1] was 93 % of control, the T/C [2] was 94 % of control and the T/C [3] was 97 % of control. For the same compound, the T/C [4] was 95 % of control, the T/C [5] was 98 % of control and the T/C (dose: 20.0 mg/kg/injection, vehicle: water) was 101 % of control.

For `CCCCCCCCCCCCSC1=C(Cl)C(=O)C(OC)=C(OC)C1=O`, the T/C (dose: 3.12 mg/kg/injection, vehicle: saline with Tween-80) was 99 % of control, the T/C (dose: 6.25 mg/kg/injection, vehicle: saline with Tween-80) was 94 % of control and the T/C [6] was 99 % of control. The T/C [7] was 94 % of control and the T/C [8] was 96 % of control.

With `COc1cc2oc(=O)ccc2cc1[C@@H]1OC(=O)C2(C)O[C@@H]12` (stereo not given in full) the T/C (dose: 0.16 mg/kg/injection, vehicle: water) was 106 % of control, the T/C (dose: 0.31 mg/kg/injection, vehicle: water) was 94 % of control and 96 % of control and the T/C [1] was 99 % of control and 112 % of control. The T/C [2] was 91 % of control and 100 % of control, the T/C [3] was 95 % of control and 100 % of control and the T/C [4] was 97 % of control and 98 % of control. The T/C [5] was 94 % of control.

With `Cc1cc(=NO)cc(C)n1O` the T/C (dose: 25.0 mg/kg/injection, vehicle: distilled water + alcohol) was 105 % of control, the T/C (dose: 50.0 mg/kg/injection, vehicle: distilled water + alcohol) was 95 % of control and 102 % of control and the T/C (dose: 100.0 mg/kg/injection, vehicle: distilled water + alcohol) was 96 % of control and 102 % of control. For the same compound, the T/C (dose: 200.0 mg/kg/injection, vehicle: distilled water + alcohol) was 97 % of control and 104 % of control and the T/C (dose: 400.0 mg/kg/injection, vehicle: distilled water + alcohol) was 97 % of control and 102 % of control.

`NC(=O)NO` was tested, and the T/C [9] was 94 % of control, the T/C [10] was 98 % of control and the T/C [11] was 96 % of control.

In the case of `O=C(Nc1nncs1)c1cccs1`, the T/C [6] is reported as 111 % of control, the T/C [7] is reported as 93 % of control and the T/C [8] is reported as 96 % of control. For the same compound, the T/C [12] was 103 % of control.

In the case of `N#C[C@H](OC1OC(COC2OC(CO)C(O)C(O)C2O)C(O)C(O)C1O)c1ccccc1` (stereo not given in full), the T/C [13] is reported as 111 % of control, the T/C [9] is reported as 95 % of control and the T/C [10] is reported as 95 % of control. For the same compound, the T/C [11] was 92 % of control, the T/C [14] was 97 % of control and the T/C (dose: 800.0 mg/kg/injection, vehicle: saline) was 101 % of control.

In the case of `COc1cc2c[n+](C)c3c(c2cc1OC)Cc1cc2c(cc1-3)OCO2`, the T/C (dose: 12.5 mg/kg/injection, vehicle: suspension in saline) is reported as 97 % of control, the T/C (dose: 25.0 mg/kg/injection, vehicle: suspension in saline) is reported as 114 % of control and the T/C (dose: 50.0 mg/kg/injection, vehicle: suspension in saline) is reported as 119 % of control.

With `O=NN(CCF)C(=O)N[C@H]1CCCC[C@H]1O` the T/C (dose: 2.5 mg/kg/injection, vehicle: saline) was 105 % of control, the T/C (dose: 5.0 mg/kg/injection, vehicle: saline) was 121 % of control and the T/C (dose: 10.0 mg/kg/injection, vehicle: saline) was 173 % of control. For the same compound, the T/C (dose: 20.0 mg/kg/injection, vehicle: saline) was 312 % of control.

With `CC1=CC2C(O)(CC(CO)=CC3C4C(C)(C)C4(OC(=O)c4ccccc4)C(OC(=O)c4ccccc4)C(C)C32O)C1=O` (stereo not given) the T/C (dose: 0.12 mg/kg/injection, vehicle: saline with Tween-80) was 103 % of control, the T/C (dose: 0.25 mg/kg/injection, vehicle: saline with Tween-80) was 107 % of control and the T/C (dose: 0.5 mg/kg/injection, vehicle: saline with Tween-80) was 95 % of control. The T/C (dose: 1.0 mg/kg/injection, vehicle: saline with Tween-80) was 108 % of control and the T/C (dose: 2.0 mg/kg/injection, vehicle: saline with Tween-80) was 99 % of control.

In the case of `Cc1cc(N2C(=O)CCSC2=S)ccc1Cl`, the T/C [15] is reported as 120 % of control, the T/C [16] is reported as 97 % of control and the T/C (dose: 50.0 mg/kg/injection, vehicle: Klucel (hydroxypropylcellulose) (HPC)) is reported as 102 % of control. For the same compound, the T/C (dose: 100.0 mg/kg/injection, vehicle: Klucel (hydroxypropylcellulose) (HPC)) was 111 % of control and the T/C (dose: 200.0 mg/kg/injection, vehicle: Klucel (hydroxypropylcellulose) (HPC)) was 124 % of control.

`N#C[Se-].c1ccc([Te+](c2ccccc2)c2ccccc2)cc1` was tested, and the T/C (dose: 1.56 mg/kg/injection, vehicle: Klucel (hydroxypropylcellulose) (HPC)) was 97 % of control, the T/C (dose: 3.12 mg/kg/injection, vehicle: Klucel (hydroxypropylcellulose) (HPC)) was 97 % of control and the T/C (dose: 6.25 mg/kg/injection, vehicle: Klucel (hydroxypropylcellulose) (HPC)) was 97 % of control. The T/C [15] was 100 % of control and the T/C [16] was 86 % of control.

With `CC1(C)COCN1COCCOCN1COCC1(C)C` the T/C (dose: 6.25 mg/kg/injection, vehicle: saline) was 103 % of control, the T/C [17] was 108 % of control and the T/C [13] was 97 % of control. The T/C [9] was 104 % of control and the T/C [10] was 107 % of control.

`c1cc[c]([Sn]([NH]c2ncnc3[nH]cnc23)([NH]c2ncnc3[nH]cnc23)[c]2ccccc2)cc1` was tested, and the T/C [17] was 103 % of control, the T/C [13] was 95 % of control and the T/C [9] was 106 % of control. The T/C [10] was 107 % of control and the T/C [11] was 98 % of control.

`COCCCNC1=C(C#N)C(=O)NC(c2cccc([N+](=O)[O-])c2)S1` (stereo not given) was tested, and the T/C [6] was 111 % of control, the T/C [7] was 93 % of control and the T/C [8] was 96 % of control. For the same compound, the T/C [12] was 104 % of control, the T/C (dose: 200.0 mg/kg/injection, vehicle: saline with Tween-80) was 93 % of control and the T/C (dose: 400.0 mg/kg/injection, vehicle: saline with Tween-80) was 98 % of control.

In the case of `C=CCc1cn(C2CC(O)C(CO)O2)c(=O)[nH]c1=O` (stereo not given), the T/C [17] is reported as 100 % of control, the T/C [13] is reported as 88 % of control and the T/C [9] is reported as 87 % of control. For the same compound, the T/C [10] was 100 % of control, the T/C [11] was 96 % of control and the T/C [14] was 98 % of control.

For `O=C1CN(CCN2CC(=O)N(CN3CCOCC3)C(=O)C2)CC(=O)N1CN1CCOCC1`, the T/C (dose: 100.0 mg/kg/injection, vehicle: water) was 100 % of control.

With `CC1=CC(C)(C)Nc2ccc(CSc3ccccc3)cc21` the T/C (dose: 12.5 mg/kg/injection, vehicle: saline + Tween-80 + alcohol) was 99 % of control, the T/C (dose: 25.0 mg/kg/injection, vehicle: saline + Tween-80 + alcohol) was 108 % of control and the T/C (dose: 50.0 mg/kg/injection, vehicle: saline + Tween-80 + alcohol) was 100 % of control. The T/C (dose: 100.0 mg/kg/injection, vehicle: saline + Tween-80 + alcohol) was 101 % of control, the T/C (dose: 200.0 mg/kg/injection, vehicle: saline + Tween-80 + alcohol) was 108 % of control and the T/C (dose: 400.0 mg/kg/injection, vehicle: saline + Tween-80 + alcohol) was 108 % of control.

With `CCOC(OCC)C(=O)OCC(=O)[C@]1(O)Cc2c(O)c3c(c(O)c2[C@@H](OC2CC(N)C(O)C(C)O2)C1)C(=O)c1c(OC)cccc1C3=O` (stereo not given in full) the T/C (dose: 0.13 mg/kg/injection, vehicle: water) was 113 % of control, the T/C (dose: 0.5 mg/kg/injection, vehicle: water) was 116 % of control and the T/C (dose: 1.0 mg/kg/injection, vehicle: water) was 112 % of control. The T/C (dose: 2.0 mg/kg/injection, vehicle: water) was 120 % of control.

For `O=C(O)CC(NC(=O)CP(=O)(O)O)C(=O)O` (stereo not given), the T/C [17] was 99 % of control, the T/C [13] was 103 % of control and the T/C [10] was 158 % of control. The T/C [11] was 187 % of control.

`CC(=O)OCC1OC(n2ccc(N)nc2=O)C(OC(C)=O)C1OC(C)=O` (stereo not given) was tested, and the T/C [17] was 92 % of control, the T/C [13] was 100 % of control and the T/C [9] was 101 % of control. For the same compound, the T/C [10] was 115 % of control and the T/C [11] was 115 % of control.

From PubChem BioAssay AID276 (DTP/NCI, 2004)
